Values of other authors as cited in patent US20230173296A1, “INTRACAVITARY PHOTODYNAMIC THERAPY” (Simphotek, Inc., priority 2020, published 2023).
Like-named read-outs stand apart in the source and are kept apart here. Each block holds one molecule with its values, some of them ahead of it.

Legend:
Human prostate = details: Davidson et. al., 2009
tumors in mice = details: Qiu et. al., 2016
cancer in rabbits = details: I-PDT, Shafirstein et. al., 2018
cancer in mice = details: I-PDT, Shafirstein et. al., 2018

Molecule: CC[C@H]1c2cc3[n-]c4c(c3C)C(=O)[C@H](C(=O)OC)c4c3nc(cc4[n-]c(cc(n2)[C@@H]1C)c(C(C)=O)c4C)[C@@H](C)[C@@H]3CCC(=O)O.[Pd+2] [TOOKAD]
Threshold Light Dose (Human prostate): >23 (Davidson et. al., 2009) J/cm^2

ε, PS extinction coefficient (650 nm): mTHPC (650 nm): 0.048 cm^−1 μM^−1
Molecule: Oc1cccc(-c2c3nc(c(-c4cccc(O)c4)c4ccc([nH]4)c(-c4cccc(O)c4)c4nc(c(-c5cccc(O)c5)c5ccc2[nH]5)CC4)C=C3)c1 [mTHPC]

ε, PS extinction coefficient (630 nm): Photofrin (630 nm): 0.0035 cm^−1 μM^−1
Molecule: Photofrin
Threshold [^1O2]dose (tumors in mice): >1.0 (Qiu et. al., 2016) mM
Threshold Light Dose Rate ϕT (cancer in rabbits): 16.5 (Shafirstein et. al., 2018) mW/cm^2
Threshold Light Dose Rate ϕT (cancer in mice): 8.4 (Shafirstein et. al., 2018) mW/cm^2

ε, PS extinction coefficient (690 nm): BPD (690 nm): 0.0783 cm^−1 μM^−1
Molecule: benzoporphyrin derivative monoacid ring A [BPD]
